The compounds below were run against CBP (Homo sapiens (Human), UniProt Q92793) (assay: In vitro CBP inhibition (AlphaScreen, biotinylated H4-tetraacetyl peptide)). Conditions: not given.
CBP, sequence (Q92793 1081-1197): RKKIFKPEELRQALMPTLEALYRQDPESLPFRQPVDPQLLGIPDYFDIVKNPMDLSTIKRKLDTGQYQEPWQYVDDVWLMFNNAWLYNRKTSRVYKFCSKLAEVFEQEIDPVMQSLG
Assay type: binding
In short: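 His-tagged CBP expressed in E. coli (50 nM final) incubated with biotinylated H4K5/8/12/16(Ac) peptide (20 nM final) in 50 mM HEPES pH 7.3, 10 mM NaCl, 0.25 mM TCEP, 0.1% BSA, 0.005% Brij-35, 0.4% DMSO, 20 min at room temp.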
With `CCOc1cc(=O)n(C)cc1-c1cn(Cc2ccccc2)nc1NC(C)=O` [Example 187, N-[1-Benzyl-4-(4-ethoxy-1-methyl-6-oxo-1,6-dihydro-pyridin-3-yl)-1H-pyrazol-3-yl]-acetamide] the IC50 was 500 to 5000 nM.

Same assay, conditions: AlphaScreen, Table 29; read-out: CBP IC50
Work on `CCOc1cc(=O)n(C)cc1-c1cnn(C2CCCN(S(C)(=O)=O)C2)c1` (stereo not drawn) [Example 181, 4-ethoxy-1-methyl-5-(1-(1-(methylsulfonyl)piperidin-3-yl)-1H-pyrazol-4-yl)pyridin-2(1H)-one] yielded an IC50 of less than 500 nM. `CCOc1cc(=O)n(C)cc1-c1cnn(-c2cc(OC)ccc2C#N)c1` [Example 182, 2-[4-(4-Ethoxy-1-methyl-6-oxo-1,6-dihydro-pyridin-3-yl)-pyrazol-1-yl]-4-methoxy-benzonitrile] showed an IC50 of less than 500 nM. Work on `CCOc1cc(=O)n(C)cc1-c1cnn(-c2cc(Oc3ccccc3)ccc2C#N)c1` [Example 183, 2-[4-(4-Ethoxy-1-methyl-6-oxo-1,6-dihydro-pyridin-3-yl)-pyrazol-1-yl]-4-phenoxy-benzonitrile] yielded an IC50 of less than 500 nM. `CCOc1cc(=O)n(C)cc1-c1cnn(-c2cc(OC3CC3)ccc2C#N)c1` [Example 184, 4-Cyclopropoxy-2-[4-(4-ethoxy-1-methyl-6-oxo-1,6-dihydro-pyridin-3-yl)-pyrazol-1-yl]-benzonitrile] showed an IC50 of less than 500 nM. Compound `CCOc1cc(=O)n(C)cc1-c1cn(Cc2ccccc2)nc1[N+](=O)[O-]` [Example 185, 5-(1-benzyl-3-nitro-1H-pyrazol-4-yl)-4-ethoxy-1-methylpyridin-2(1H)-one] has an IC50 of less than 500 nM. With `CCOc1cc(=O)n(C)cc1-c1cn(Cc2ccccc2)nc1N` [Example 186, 5-(3-amino-1-benzyl-1H-pyrazol-4-yl)-4-ethoxy-1-methylpyridin-2(1H)-one] the IC50 was less than 500 nM. `Cc1cccc(C)c1-c1cc(=O)n(C)cc1-c1cnn(Cc2ccccc2)c1` [Example 189, 5-(1-Benzyl-1H-pyrazol-4-yl)-4-(2,6-dimethyl-phenyl)-1-methyl-1H-pyridin-2-one] gave an IC50 greater than 5000 nM. In the case of `Cn1cc(-c2cnn(CC3CC3(F)F)c2)c(-c2ccccc2)cc1=O` (stereo not drawn) [Example 190, 5-[1-(2,2-Difluoro-cyclopropylmethyl)-1H-pyrazol-4-yl]-1-methyl-4-phenyl-1H-pyridin-2-one], the IC50 is reported as less than 500 nM. Work on `COc1ccc(-c2cc(=O)n(C)cc2-c2cnn(CC3CC3(F)F)c2)cc1` (stereo not drawn) [Example 191, 5-[1-(2,2-Difluoro-cyclopropylmethyl)-1H-pyrazol-4-yl]-4-(4-methoxy-phenyl)-1-methyl-1H-pyridin-2-one] yielded an IC50 of less than 500 nM. In the case of `Cn1cc(-c2cc(=O)n(C)cc2-c2cnn(CC3CC3(F)F)c2)cn1` (stereo not drawn) [Example 192, 5-[1-(2,2-Difluoro-cyclopropylmethyl)-1H-pyrazol-4-yl]-1-methyl-4-(1-methyl-1H-pyrazol-4-yl)-1H-pyridin-2-one], the IC50 is reported as less than 500 nM. `Cn1cc(-c2cnn(Cc3ccccc3)c2)c(-c2cc[nH]c(=O)c2)cc1=O` [Example 193, 5-(1-Benzyl-1 H-pyrazol-4-yl)-1-methyl-1H,1′H-[4,4′]bipyridinyl-2,2′-dione] showed an IC50 of less than 500 nM. `Cn1cc(-c2cnn(Cc3ccccc3)c2)c(-c2ccc(=O)[nH]c2)cc1=O` [Example 194, 5′-(1-Benzyl-1H-pyrazol-4-yl)-1′-methyl-1H,1′H-[3,4′]bipyridinyl-6,2′-dione] gave an IC50 of less than 500 nM. Compound `Cc1c(-c2cnn(Cc3ccccc3)c2)ccc(=O)n1C` [Example 195, 5-(1-Benzyl-1H-pyrazol-4-yl)-1,6-dimethyl-1H-pyridin-2-one] has an IC50 greater than 5000 nM. For `CC(c1ccccc1)n1cc(-c2cc(N(C)C)c(=O)n(C)c2)cn1` (stereo not drawn) [Example 196, 3-Dimethylamino-1-methyl-5-[1-(1-phenyl-ethyl)-1H-pyrazol-4-yl]-1H-pyridin-2-one], the IC50 was 500 to 5000 nM. `CC(c1ccccc1)n1cc(-c2cc(C3CC3)c(=O)n(C)c2)cn1` (stereo not drawn) [Example 197, 3-Cyclopropyl-1-methyl-5-[1-(1-phenyl-ethyl)1H-pyrazol-4-yl]-1H-pyridin-2-one] showed an IC50 greater than 5000 nM. For `CCOC(=O)c1nn(Cc2ccccc2)cc1-c1cc(C)c(=O)n(C)c1` [Example 198, 1-Benzyl-4-(1,5-dimethyl-6-oxo-1,6-dihydro-pyridin-3-yl)-1H-pyrazole-3-carboxylic acid ethyl ester], the IC50 was less than 500 nM. With `CCOC(=O)c1c(-c2cc(C)c(=O)n(C)c2)cnn1Cc1ccccc1` [Example 199, 2-Benzyl-4-(1,5-dimethyl-6-oxo-1,6-dihydro-pyridin-3-yl)-2H-pyrazole-3-carboxylic acid ethyl ester] the IC50 was less than 500 nM. `Cn1cc(-c2cnn(Cc3ccccc3)c2)c(N)cc1=O` [Example 200, 4-amino-5-(1-benzyl-1H-pyrazol-4-yl)-1-methylpyridin-2(1H)-one] showed an IC50 of 500 to 5000 nM. For `Cn1cc(-c2cnn(Cc3ccccc3)c2)c(NCCC(=O)O)cc1=O` [Example 201, 3-((5-(1-benzyl-1H-pyrazol-4-yl)-1-methyl-2-oxo-1,2-dihydropyridin-4-yl)amino)propanoic Acid], the IC50 was less than 500 nM. Compound `CC(C)Oc1cc(=O)n(C)cc1-c1cnn(-c2ccccc2C#N)c1` [Example 202, 2-[4-(4-Isopropoxy-1-methyl-6-oxo-1,6-dihydro-pyridin-3-yl)-pyrazol-1-yl]-benzonitrile] has an IC50 of less than 500 nM. `CC(C)Oc1cc(=O)n(C)cc1-c1cnn(-c2ccccc2C(=O)O)c1` [Example 203, 2-[4-(4-Isopropoxy-1-methyl-6-oxo-1,6-dihydro-pyridin-3-yl)-pyrazol-1-yl]-benzoic Acid] was tested, and the IC50 was less than 500 nM. In the case of `Cn1cc(-c2cc(=O)n(C)cc2-c2cnn(-c3ccccc3C#N)c2)cn1` [Example 204, 2-{4-[1-Methyl-4-(1-methyl-1H-pyrazol-4-yl)-6-oxo-1,6-dihydro-pyridin-3-yl]-pyrazol-1-yl}-benzonitrile], the IC50 is reported as less than 500 nM. With `Cn1cc(-c2cnn(-c3ccccc3C#N)c2)c(-c2cc[nH]c(=O)c2)cc1=O` [Example 205, 2-[4-(1-Methyl-6,2′-dioxo-1,6,1′,2′-tetrahydro-[4,4′]bipyridinyl-3-yl)-pyrazol-1-yl]-benzonitrile] the IC50 was less than 500 nM. `Cn1cc(-c2cnn(-c3ccccc3C#N)c2)c(-c2ccc(=O)[nH]c2)cc1=O` [Example 206, 2-[4-(1′-Methyl-6,6′-dioxo-1,6,1′,6′-tetrahydro-[3,4′]bipyridinyl-3′-yl)-pyrazol-1-y]benzonitrile] was tested, and the IC50 was less than 500 nM. Work on `Cn1cc(-c2cnn(-c3ccccc3C#N)c2)c(C2CC2)cc1=O` [Example 207, 2-[4-(4-Cyclopropyl-1-methyl-6-oxo-1,6-dihydro-pyridin-3-yl)-pyrazol-1-yl]-benzonitrile] yielded an IC50 of less than 500 nM. In the case of `Cn1cc(-c2cc(=O)n(C)cc2-c2cnn(-c3ccccc3C(=O)O)c2)cn1` [Example 208, 2-{4-[1-Methyl-4-(1-methyl-1H-pyrazol-4-yl)-6-oxo-1,6-dihydro-pyridin-3-yl]-pyrazol-1-yl}-benzoic acid], the IC50 is reported as less than 500 nM. In the case of `Cn1cc(-c2cc(=O)n(C)cc2-c2cnn(-c3ccccc3C#N)c2)ccc1=O` [Example 209, 2-[4-(1,1′-Dimethyl-6,6′-dioxo-1,6,1′,6′-tetrahydro-[3,4′]bipyridinyl-3′-yl)-pyrazol-1-yl]-benzonitrile], the IC50 is reported as less than 500 nM. `Cc1cc(-c2cc(=O)n(C)cc2-c2cnn(-c3ccccc3C#N)c2)c[nH]c1=O` [Example 210, 2-[4-(5,1′-Dimethyl-6,6′-dioxo-1,6,1′,6′-tetrahydro-[3,4′]bipyridinyl-3′-yl)-pyrazol-1-yl]-benzonitrile] showed an IC50 of less than 500 nM. With `Cn1cc(-c2cnn(-c3ccccc3C(=O)O)c2)c(C2CC2)cc1=O` [Example 211, 2-[4-(4-Cyclopropyl-1-methyl-6-oxo-1,6-dihydro-pyridin-3-yl)-pyrazol-1-yl]-benzoic acid] the IC50 was less than 500 nM. `Cn1cc(-c2cnn(-c3ccccc3C#N)c2)c(-c2ccccc2)cc1=O` [Example 212, 2-[4-(1-Methyl-6-oxo-4-phenyl-1,6-dihydro-pyridin-3-yl)-pyrazol-1-yl]-benzonitrile] showed an IC50 of less than 500 nM. `Cc1ccc(-c2cc(=O)n(C)cc2-c2cnn(-c3ccccc3C#N)c2)cc1` [Example 213, 2-[4-(1-Methyl-6-oxo-4-p-tolyl-1,6-dihydro-pyridin-3-yl)-pyrazol-1-yl]-benzonitrile] was tested, and the IC50 was less than 500 nM. `Cn1cc(-c2cnn(-c3ccccc3C#N)c2)c(-c2ccc(Cl)cc2)cc1=O` [Example 214, 2-{4-[4-(4-Chloro-phenyl)-1-methyl-6-oxo-1,6-dihydro-pyridin-3-yl]-pyrazol-1-yl}-benzonitrile] showed an IC50 of less than 500 nM. `Cn1cc(-c2cnn(-c3ccccc3C#N)c2)c(-c2ccc(F)cc2)cc1=O` [Example 215, 2-{4-[4-(4-Fluoro-phenyl)-1-methyl-6-oxo-1,6-dihydro-pyridin-3-yl]-pyrazol-1-yl}-benzonitrile] gave an IC50 of less than 500 nM. Work on `Cn1cc(-c2cnn(-c3ccccc3C#N)c2)c(-c2cccc(Cl)c2)cc1=O` [Example 216, 2-{4-[4-(3-Chloro-phenyl)-1-methyl-6-oxo-1,6-dihydro-pyridin-3-yl]-pyrazol-1-yl}-benzonitrile] yielded an IC50 of less than 500 nM. `Cn1cc(-c2cnn(-c3ccccc3C#N)c2)c(-c2ccc(C(=O)O)cc2)cc1=O` [Example 217, 4-{5-[1-(2-Cyano-phenyl)-1H-pyrazol-4-yl]-1-methyl-2-oxo-1,2-dihydro-pyridin-4-yl}-benzoic acid] was tested, and the IC50 was less than 500 nM. `Cn1cc(-c2cnn(-c3ccccc3C#N)c2)c(-c2ccc(C(N)=O)cc2)cc1=O` [Example 218, 4-{5-[1-(2-Cyano-phenyl)-1H-pyrazol-4-yl]-1-methyl-2-oxo-1,2-dihydro-pyridin-4-yl}-benzamide] gave an IC50 of less than 500 nM. `CNC(=O)c1ccc(-c2cc(=O)n(C)cc2-c2cnn(-c3ccccc3C#N)c2)cc1` [Example 219, 4-{5-[1-(2-Cyano-phenyl)-1H-pyrazol-4-yl]-1-methyl-2-oxo-1,2-dihydro-pyridin-4-yl}-N-methyl-benzamide] was tested, and the IC50 was less than 500 nM. With `COc1cc(-c2cc(=O)n(C)cc2-c2cnn(-c3ccccc3C#N)c2)ccn1` [Example 220, 2-[4-(2′-Methoxy-1-methyl-6-oxo-1,6-dihydro-[4,4′]bipyridinyl-3-yl)-pyrazol-1-yl]-benzonitrile] the IC50 was less than 500 nM.

— patent publication US10617680B2 (CELGENE QUANTICEL RESEARCH, INC., priority 2017, dated 2020)
